# Data reported in ChEMBL document CHEMBL3885861, “Open TG-GATES”.
# Species on record: Rattus norvegicus
# Test: Open TG-GATES - Regimen: Single
# Format: toxicity, organism-based, Sprague-Dawley
# Design: regimen Single, gender Male, age 6 weeks
# Conditions: in vivo, po, 300 mg/kg, route gavage, dose level Low; for APTT / Bas / Eos / Fbg / Hb / Ht / Lym / MCH / MCHC / MCV / Mono / Neu / PT / Plat / RBC / Ret / WBC: tissue Blood; for KIDNEY_L / KIDNEY_R / KIDNEY_TOTAL: tissue Kidney; for LIVER: tissue Liver; for A/G / ALP / ALT / AST / BUN / CRE / Ca / Cl / DBIL / GLC / IP / K / LDH / Na / PL / RALB / TBIL / TC / TG / TP / gamma-GTP: tissue Plasma
compound,measurement,setting,value
Clc1c(Cl)c(Cl)c(Cl)c(Cl)c1Cl [PERCHLOROBENZENE],TERMINAL_BW,3 h,219 g
same,APTT,3 h,18.9 s
same,Bas,3 h,0%
same,Eos,3 h,1%
same,Fbg,3 h,225 mg/dL
same,Hb,3 h,13.3 g/dL
same,Ht,3 h,37.8%
same,Lym,3 h,72.2%
same,MCH,3 h,21.8 pg
same,MCHC,3 h,35.2%
same,MCV,3 h,61.7 fL
same,Mono,3 h,2.8%
same,Neu,3 h,23.2%
same,PT,3 h,11.9 s
same,Plat,3 h,121.8 x10_4/uL
same,RBC,3 h,613.6 x10_4/ul
same,Ret,3 h,7.1%
same,WBC,3 h,86.9 x10_2/uL
same,KIDNEY_L,3 h,1 g
same,KIDNEY_R,3 h,1 g
same,KIDNEY_TOTAL,3 h,2 g
same,LIVER,3 h,9.9 g
same,A/G,3 h,1.7
same,ALP,3 h,1023.6 IU/L
same,ALT,3 h,42.4 IU/L
same,AST,3 h,87.2 IU/L
same,BUN,3 h,10.2 mg/dL
same,CRE,3 h,0.4 mg/dL
same,Ca,3 h,10.7 mg/dL
same,Cl,3 h,103 meq/L
same,DBIL,3 h,0.062 mg/dL
same,GLC,3 h,195.8 mg/dL
same,IP,3 h,9.2 mg/dL
same,K,3 h,3.9 meq/L
same,LDH,3 h,211 IU/L
same,Na,3 h,140.2 meq/L
same,PL,3 h,145.8 mg/dL
same,RALB,3 h,3.4 g/dL
same,TBIL,3 h,0.1 mg/dL
same,TC,3 h,72.6 mg/dL
same,TG,3 h,109 mg/dL
same,TP,3 h,5.4 g/dL
same,gamma-GTP,3 h,1 IU/L
same,TERMINAL_BW,6 h,218.5 g
same,APTT,6 h,17.9 s
same,Bas,6 h,0.2%
same,Eos,6 h,1%
same,Fbg,6 h,233.6 mg/dL
same,Hb,6 h,13.6 g/dL
same,Ht,6 h,38.5%
same,Lym,6 h,77.2%
same,MCH,6 h,21.9 pg
same,MCHC,6 h,35.3%
same,MCV,6 h,62 fL
same,Mono,6 h,3.6%
same,Neu,6 h,17.2%
same,PT,6 h,11.9 s
same,Plat,6 h,123.5 x10_4/uL
same,RBC,6 h,623.6 x10_4/ul
same,Ret,6 h,7%
same,WBC,6 h,100 x10_2/uL
same,KIDNEY_L,6 h,1 g
same,KIDNEY_R,6 h,1 g
same,KIDNEY_TOTAL,6 h,1.9 g
same,LIVER,6 h,8.9 g
same,A/G,6 h,1.6
same,ALP,6 h,1089 IU/L
same,ALT,6 h,31.4 IU/L
same,AST,6 h,73.2 IU/L
same,BUN,6 h,8.4 mg/dL
same,CRE,6 h,0.4 mg/dL
same,Ca,6 h,10.5 mg/dL
same,Cl,6 h,102.8 meq/L
same,DBIL,6 h,0.072 mg/dL
same,GLC,6 h,190.6 mg/dL
same,IP,6 h,9.4 mg/dL
same,K,6 h,4.1 meq/L
same,LDH,6 h,224.4 IU/L
same,Na,6 h,140.8 meq/L
same,PL,6 h,130.6 mg/dL
same,RALB,6 h,3.4 g/dL
same,TBIL,6 h,0.1 mg/dL
same,TC,6 h,70.2 mg/dL
same,TG,6 h,56 mg/dL
same,TP,6 h,5.5 g/dL
same,gamma-GTP,6 h,1 IU/L
same,TERMINAL_BW,9 h,213.9 g
same,APTT,9 h,18.1 s
same,Bas,9 h,0%
same,Eos,9 h,0.8%
same,Fbg,9 h,228 mg/dL
same,Hb,9 h,13.9 g/dL
same,Ht,9 h,39.4%
same,Lym,9 h,78.6%
same,MCH,9 h,21.6 pg
same,MCHC,9 h,35.2%
same,MCV,9 h,61.5 fL
same,Mono,9 h,3%
same,Neu,9 h,16%
same,PT,9 h,12.5 s
same,Plat,9 h,125.7 x10_4/uL
same,RBC,9 h,641.2 x10_4/ul
same,Ret,9 h,6.4%
same,WBC,9 h,85.4 x10_2/uL
same,KIDNEY_L,9 h,1 g
same,KIDNEY_R,9 h,0.9 g
same,KIDNEY_TOTAL,9 h,1.9 g
same,LIVER,9 h,8.7 g
same,A/G,9 h,1.6
same,ALP,9 h,857 IU/L
same,ALT,9 h,30.6 IU/L
same,AST,9 h,75.4 IU/L
same,BUN,9 h,9.8 mg/dL
same,CRE,9 h,0.4 mg/dL
same,Ca,9 h,10.5 mg/dL
same,Cl,9 h,104.2 meq/L
same,DBIL,9 h,0.066 mg/dL
same,GLC,9 h,202.8 mg/dL
same,IP,9 h,10.2 mg/dL
same,K,9 h,3.8 meq/L
same,LDH,9 h,222 IU/L
same,Na,9 h,142.6 meq/L
same,PL,9 h,119.8 mg/dL
same,RALB,9 h,3.4 g/dL
same,TBIL,9 h,0.1 mg/dL
same,TC,9 h,63.6 mg/dL
same,TG,9 h,44.8 mg/dL
same,TP,9 h,5.5 g/dL
same,gamma-GTP,9 h,1.2 IU/L
same,TERMINAL_BW,24 h,230 g
same,APTT,24 h,17.8 s
same,Bas,24 h,0.8%
same,Eos,24 h,1%
same,Fbg,24 h,225 mg/dL
same,Hb,24 h,13.6 g/dL
same,Ht,24 h,38.8%
same,Lym,24 h,78%
same,MCH,24 h,21.9 pg
same,MCHC,24 h,35.1%
same,MCV,24 h,62.4 fL
same,Mono,24 h,3%
same,Neu,24 h,17.2%
same,PT,24 h,11.8 s
same,Plat,24 h,114.2 x10_4/uL
same,RBC,24 h,621 x10_4/ul
same,Ret,24 h,6.4%
same,WBC,24 h,81.3 x10_2/uL
same,KIDNEY_L,24 h,1 g
same,KIDNEY_R,24 h,1 g
same,KIDNEY_TOTAL,24 h,2.1 g
same,LIVER,24 h,11 g
same,A/G,24 h,1.6
same,ALP,24 h,883.2 IU/L
same,ALT,24 h,32 IU/L
same,AST,24 h,61.8 IU/L
same,BUN,24 h,13.2 mg/dL
same,CRE,24 h,0.4 mg/dL
same,Ca,24 h,10.9 mg/dL
same,Cl,24 h,103.2 meq/L
same,DBIL,24 h,0.058 mg/dL
same,GLC,24 h,202.4 mg/dL
same,IP,24 h,7.1 mg/dL
same,K,24 h,3.9 meq/L
same,LDH,24 h,196 IU/L
same,Na,24 h,141.6 meq/L
same,PL,24 h,143.8 mg/dL
same,RALB,24 h,3.3 g/dL
same,TBIL,24 h,0.1 mg/dL
same,TC,24 h,77.6 mg/dL
same,TG,24 h,118.8 mg/dL
same,TP,24 h,5.5 g/dL
same,gamma-GTP,24 h,1.2 IU/L
